# Target: T1, FeCH (ferrochelatase) (Cereibacter sphaeroides, UniProt Q3IYK5, Y58H)
# T1 construct: gene HemH; His-tagged, pET14b, E. coli Rosetta pLysS
# Assay: spectrophotometric ferrochelatase assay (DIX consumption at […] nm, isosbestic reference […] nm)
# Format: biochemical
# Details: 1 µM FeCH, 30 µM DIX, 100 µM CoCl2, 25 mM Tris pH 7.4, 0.15% Tween 80; active, substantially lower than wild type
# T1 sequence (Q3IYK5 entry or part of it Y58H): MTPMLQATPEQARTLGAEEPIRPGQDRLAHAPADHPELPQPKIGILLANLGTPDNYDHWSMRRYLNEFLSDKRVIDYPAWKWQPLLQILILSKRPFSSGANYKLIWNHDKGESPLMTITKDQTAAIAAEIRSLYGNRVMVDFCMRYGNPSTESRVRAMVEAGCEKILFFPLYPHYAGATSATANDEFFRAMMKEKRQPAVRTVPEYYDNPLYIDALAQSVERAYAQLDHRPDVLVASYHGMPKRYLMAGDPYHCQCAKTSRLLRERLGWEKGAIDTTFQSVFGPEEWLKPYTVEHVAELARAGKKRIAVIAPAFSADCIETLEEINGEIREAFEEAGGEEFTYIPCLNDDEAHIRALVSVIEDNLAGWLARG
smiles,measurement,value
CC1=C(CCC(=O)O)c2cc3nc(cc4[nH]c(cc4C)cc4[nH]c(cc1n2)cc4C)C(C)=C3CCC(=O)O [deuteroporphyrin IX],"spectrophotometric ferrochelatase assay (DIX consumption at 496 nm, isosbestic r)",the ΔpufQ PSvar version of the FeCH protein is active

# Source: article PMC5725709, “PufQ regulates porphyrin flux at the haem/bacteriochlorophyll branchpoint of tetrapyrrole biosynthesis via interactions with ferrochelatase” (Molecular Microbiology, 2017)
